Results from US20070048250A1, “Methods of treating concomitant constipation in a cancer treatment regimen including imexon” (AmpliMed Corporation, priority 2005, published 2007).

Assays:
patients = experiment: clinical study of imexon to treat cancer: adverse events (daily dose 5 consecutive days per week, every other week, four-week cycle); format: in vivo, human
Source text: As described hereinbefore, it has been found, unexpectedly, that the administration of a pharmaceutical composition comprising imexon induces constipation in a large percentage of patients. Of forty nine (49) patients taking part in a clinical study investigating the use of imexon to treat cancer, thirty one (31) patients (63.3%) were reported to have had the gastrointestinal toxicity of constipation in association with their treatment with imexon. […] All other observed gastrointestinal adverse events individually accounted for less than 5% of total gastrointestinal adverse events.
Of the forty nine (49) patients treated in the clinical study, thirty nine (39) received imexon at a dose equal to or greater than 140 mg/m^2, thirty three (33) received imexon at a dose equal to or greater than 185 mg/m^2, and thirty (30) received imexon at a dose equal to or greater than 245 mg/m^2.
Of these seventy three (73) constipation adverse events, fifty two (52) of the adverse events (71.2%) were characterized as “possibly,” “probably,” or “definitely related to the treatment” of the patient with imexon.

dogs = conditions: numerous studies; cited from earlier work
[1] = tested on: fresh human tumor cell lines; conditions: cited from earlier work
[2] = 20 mg/m^2, relationship Not Related
[3] = 80 mg/m^2, relationship Not Related
[4] = 105 mg/m^2, relationship Not Related
[5] = 140 mg/m^2, relationship Not Related
[6] = 140 mg/m^2, relationship Probable
[7] = 140 mg/m^2, relationship Unlikely
[8] = 185 mg/m^2, relationship Not Related
[9] = 185 mg/m^2, relationship Possible
[10] = 185 mg/m^2, relationship Probable
[11] = 245 mg/m^2, relationship Not Related
[12] = 245 mg/m^2, relationship Possible
[13] = 245 mg/m^2, relationship Probable
[14] = 325 mg/m^2, relationship Possible
[15] = 325 mg/m^2, relationship Probable
[16] = 430 mg/m^2, relationship Possible
[17] = 430 mg/m^2, relationship Probable
[18] = 430 mg/m^2, relationship Unlikely
[19] = 570 mg/m^2, relationship Definite
[20] = 570 mg/m^2, relationship Probable
[21] = 750 mg/m^2, relationship Definite
[22] = 750 mg/m^2, relationship Possible
[23] = 750 mg/m^2, relationship Probable
[24] = 875 mg/m^2, relationship Definite
[25] = 875 mg/m^2, relationship Possible
[26] = 875 mg/m^2, relationship Probable
[27] = 1000 mg/m^2, relationship Probable
[28] = all doses 20-1000 mg/m^2 (Total), relationship Definite
[29] = all doses 20-1000 mg/m^2 (Total), relationship Not Related
[30] = all doses 20-1000 mg/m^2 (Total), relationship Possible
[31] = all doses 20-1000 mg/m^2 (Total), relationship Probable
[32] = all doses 20-1000 mg/m^2 (Total), relationship Unlikely
[33] = all doses 20-1000 mg/m^2, 49 patients, all relationships (Total)
[34] = dose equal to or greater than 185 mg/m^2
[35] = dose equal to or greater than 245 mg/m^2

N=C1NC(=O)N2CC12 (centres unmarked) [imexon, 4-imino-1,3-diazabicyclo[3.1.0]-hexan-2-one]
Constipation Adverse Events, Total (patients; 20 mg/m^2, relationship Definite): 0 | Constipation Adverse Events, Grade 2 (patients; [2]): 1 | Constipation Adverse Events, Grade 3 (patients; [2]): 1 | Constipation Adverse Events, Total (patients; [2]): 2 | Constipation Adverse Events, Total (patients; 20 mg/m^2, relationship Possible): 0 | Constipation Adverse Events, Total (patients; 20 mg/m^2, relationship Probable): 0 | Constipation Adverse Events, Total (patients; 20 mg/m^2, relationship Unlikely): 0 | Constipation Adverse Events, Total (patients; 40 mg/m^2, relationship Definite): 0 | Constipation Adverse Events, Total (patients; 40 mg/m^2, relationship Not Related): 0 | Constipation Adverse Events, Total (patients; 40 mg/m^2, relationship Possible): 0 | Constipation Adverse Events, Total (patients; 40 mg/m^2, relationship Probable): 0 | Constipation Adverse Events, Total (patients; 40 mg/m^2, relationship Unlikely): 0 | Constipation Adverse Events, Total (patients; 80 mg/m^2, relationship Definite): 0 | Constipation Adverse Events, Grade 2 (patients; [3]): 3 | Constipation Adverse Events, Grade 3 (patients; [3]): 1 | Constipation Adverse Events, Total (patients; [3]): 4 | Constipation Adverse Events, Total (patients; 80 mg/m^2, relationship Possible): 0 | Constipation Adverse Events, Total (patients; 80 mg/m^2, relationship Probable): 0 | Constipation Adverse Events, Total (patients; 80 mg/m^2, relationship Unlikely): 0 | Constipation Adverse Events, Total (patients; 105 mg/m^2, relationship Definite): 0 | Constipation Adverse Events, Grade 2 (patients; [4]): 5 | Constipation Adverse Events, Grade 3 (patients; [4]): 3 | Constipation Adverse Events, Total (patients; [4]): 8 | Constipation Adverse Events, Total (patients; 105 mg/m^2, relationship Possible): 0 | Constipation Adverse Events, Total (patients; 105 mg/m^2, relationship Probable): 0 | Constipation Adverse Events, Total (patients; 105 mg/m^2, relationship Unlikely): 0 | Constipation Adverse Events, Total (patients; 140 mg/m^2, relationship Definite): 0 | Constipation Adverse Events, Grade 2 (patients; [5]): 1 | Constipation Adverse Events, Total (patients; [5]): 1 | Constipation Adverse Events, Total (patients; 140 mg/m^2, relationship Possible): 0 | Constipation Adverse Events, Grade 2 (patients; [6]): 1 | Constipation Adverse Events, Total (patients; [6]): 1 | Constipation Adverse Events, Grade 2 (patients; [7]): 2 | Constipation Adverse Events, Grade 3 (patients; [7]): 1 | Constipation Adverse Events, Total (patients; [7]): 3 | Constipation Adverse Events, Total (patients; 185 mg/m^2, relationship Definite): 0 | Constipation Adverse Events, Grade 3 (patients; [8]): 1 | Constipation Adverse Events, Total (patients; [8]): 1 | Constipation Adverse Events, Grade 1 (patients; [9]): 1 | Constipation Adverse Events, Total (patients; [9]): 1 | Constipation Adverse Events, Grade 2 (patients; [10]): 1 | Constipation Adverse Events, Total (patients; [10]): 1 | Constipation Adverse Events, Total (patients; 185 mg/m^2, relationship Unlikely): 0 | Constipation Adverse Events, Total (patients; 245 mg/m^2, relationship Definite): 0 | Constipation Adverse Events, Grade 1 (patients; [11]): 1 | Constipation Adverse Events, Total (patients; [11]): 1 | Constipation Adverse Events, Grade 2 (patients; [12]): 4 | Constipation Adverse Events, Grade 3 (patients; [12]): 1 | Constipation Adverse Events, Total (patients; [12]): 5 | Constipation Adverse Events, Grade 2 (patients; [13]): 2 | Constipation Adverse Events, Grade 3 (patients; [13]): 1 | Constipation Adverse Events, Total (patients; [13]): 3 | Constipation Adverse Events, Total (patients; 245 mg/m^2, relationship Unlikely): 0 | Constipation Adverse Events, Total (patients; 325 mg/m^2, relationship Definite): 0 | Constipation Adverse Events, Total (patients; 325 mg/m^2, relationship Not Related): 0 | Constipation Adverse Events, Grade 2 (patients; [14]): 2 | Constipation Adverse Events, Total (patients; [14]): 2 | Constipation Adverse Events, Grade 1 (patients; [15]): 1 | Constipation Adverse Events, Grade 2 (patients; [15]): 2 | Constipation Adverse Events, Total (patients; [15]): 3 | Constipation Adverse Events, Total (patients; 325 mg/m^2, relationship Unlikely): 0 | Constipation Adverse Events, Total (patients; 430 mg/m^2, relationship Definite): 0 | Constipation Adverse Events, Total (patients; 430 mg/m^2, relationship Not Related): 0 | Constipation Adverse Events, Grade 2 (patients; [16]): 1 | Constipation Adverse Events, Total (patients; [16]): 1 | Constipation Adverse Events, Grade 1 (patients; [17]): 2 | Constipation Adverse Events, Grade 2 (patients; [17]): 5 | Constipation Adverse Events, Grade 3 (patients; [17]): 1 | Constipation Adverse Events, Total (patients; [17]): 8 | Constipation Adverse Events, Grade 1 (patients; [18]): 1 | Constipation Adverse Events, Total (patients; [18]): 1 | Constipation Adverse Events, Grade 1 (patients; [19]): 1 | Constipation Adverse Events, Grade 2 (patients; [19]): 4 | Constipation Adverse Events, Grade 3 (patients; [19]): 2 | Constipation Adverse Events, Total (patients; [19]): 7 | Constipation Adverse Events, Total (patients; 570 mg/m^2, relationship Not Related): 0 | Constipation Adverse Events, Total (patients; 570 mg/m^2, relationship Possible): 0 | Constipation Adverse Events, Grade 1 (patients; [20]): 1 | Constipation Adverse Events, Total (patients; [20]): 1 | Constipation Adverse Events, Total (patients; 570 mg/m^2, relationship Unlikely): 0 | Constipation Adverse Events, Grade 1 (patients; [21]): 1 | Constipation Adverse Events, Grade 2 (patients; [21]): 4 | Constipation Adverse Events, Grade 3 (patients; [21]): 3 | Constipation Adverse Events, Total (patients; [21]): 8 | Constipation Adverse Events, Total (patients; 750 mg/m^2, relationship Not Related): 0 | Constipation Adverse Events, Grade 1 (patients; [22]): 2 | Constipation Adverse Events, Total (patients; [22]): 2 | Constipation Adverse Events, Grade 2 (patients; [23]): 2 | Constipation Adverse Events, Total (patients; [23]): 2 | Constipation Adverse Events, Total (patients; 750 mg/m^2, relationship Unlikely): 0 | Constipation Adverse Events, Grade 1 (patients; [24]): 2 | Constipation Adverse Events, Grade 2 (patients; [24]): 1 | Constipation Adverse Events, Grade 3 (patients; [24]): 1 | Constipation Adverse Events, Total (patients; [24]): 4 | Constipation Adverse Events, Total (patients; 875 mg/m^2, relationship Not Related): 0 | Constipation Adverse Events, Grade 2 (patients; [25]): 1 | Constipation Adverse Events, Total (patients; [25]): 1 | Constipation Adverse Events, Grade 1 (patients; [26]): 1 | Constipation Adverse Events, Total (patients; [26]): 1 | Constipation Adverse Events, Total (patients; 875 mg/m^2, relationship Unlikely): 0 | Constipation Adverse Events, Total (patients; 1000 mg/m^2, relationship Definite): 0 | Constipation Adverse Events, Total (patients; 1000 mg/m^2, relationship Not Related): 0 | Constipation Adverse Events, Total (patients; 1000 mg/m^2, relationship Possible): 0 | Constipation Adverse Events, Grade 2 (patients; [27]): 1 | Constipation Adverse Events, Total (patients; [27]): 1 | Constipation Adverse Events, Total (patients; 1000 mg/m^2, relationship Unlikely): 0 | all other observed gastrointestinal adverse events, individually, as share of total gastrointestinal adverse events (patients; 49 patients): less than 5% | anorexia as share of total gastrointestinal adverse events (patients; 49 patients): 13.4% | constipation adverse events as share of all gastrointestinal adverse events (patients; 49 patients): 21.8% | diarrhea as share of total gastrointestinal adverse events (patients; 49 patients): 10.5% | nausea as share of all gastrointestinal adverse events (patients; 49 patients): 23.0% | vomiting as share of total gastrointestinal adverse events (patients; 49 patients): 11.9% | Constipation Adverse Events, Grade 1 (patients; [28]): 4 | Constipation Adverse Events, Grade 2 (patients; [28]): 9 | Constipation Adverse Events, Grade 3 (patients; [28]): 6 | Constipation Adverse Events, Grade 4 (patients; [28]): 0 | Constipation Adverse Events, Grade 5 (patients; [28]): 0 | Constipation Adverse Events, Total (patients; [28]): (Total) 19 | Constipation Adverse Events, Grade 1 (patients; [29]): 1 | Constipation Adverse Events, Grade 2 (patients; [29]): 10 | Constipation Adverse Events, Grade 3 (patients; [29]): 6 | Constipation Adverse Events, Grade 4 (patients; [29]): 0 | Constipation Adverse Events, Grade 5 (patients; [29]): 0 | Constipation Adverse Events, Total (patients; [29]): (Total) 17 | Constipation Adverse Events, Grade 1 (patients; [30]): 3 | Constipation Adverse Events, Grade 2 (patients; [30]): 8 | Constipation Adverse Events, Grade 3 (patients; [30]): 1 | Constipation Adverse Events, Grade 4 (patients; [30]): 0 | Constipation Adverse Events, Grade 5 (patients; [30]): 0 | Constipation Adverse Events, Total (patients; [30]): (Total) 12 | Constipation Adverse Events, Grade 1 (patients; [31]): 5 | Constipation Adverse Events, Grade 2 (patients; [31]): 14 | Constipation Adverse Events, Grade 3 (patients; [31]): 2 | Constipation Adverse Events, Grade 4 (patients; [31]): 0 | Constipation Adverse Events, Grade 5 (patients; [31]): 0 | Constipation Adverse Events, Total (patients; [31]): (Total) 21 | Constipation Adverse Events, Grade 1 (patients; [32]): 1 | Constipation Adverse Events, Grade 2 (patients; [32]): 2 | Constipation Adverse Events, Grade 3 (patients; [32]): 1 | Constipation Adverse Events, Grade 4 (patients; [32]): 0 | Constipation Adverse Events, Grade 5 (patients; [32]): 0 | Constipation Adverse Events, Total (patients; [32]): (Total) 4 | Constipation Adverse Events, Grade 1 (patients; [33]): (Total) 14 | Constipation Adverse Events, Grade 2 (patients; [33]): (Total) 43 | Constipation Adverse Events, Grade 3 (patients; [33]): (Total) 16 | Constipation Adverse Events, Grade 4 (patients; [33]): (Total) 0 | Constipation Adverse Events, Grade 5 (patients; [33]): (Total) 0 | Constipation Adverse Events, Total (patients; [33]): 73 | Constipation Adverse Events, Total (patients; all doses 20-1000 mg/m^2, 49 patients, all relationships (Total), listed as Imexon): (Total) 73 | constipation adverse events characterized as possibly, probably, or definitely related to the treatment (patients; [34]): 94.4% | constipation adverse events characterized as probably, or definitely related to the treatment (patients; [34]): 72.2% | constipation adverse events in total (patients; [34]): 54 | constipation adverse events characterized as possibly, probably, or definitely related to the treatment (patients; [35]): 96.1% | constipation adverse events characterized as probably, or definitely related to the treatment (patients; [35]): 74.5% | constipation adverse events in total (patients; [35]): 51 | gastrointestinal lesions on pathologic examination (dogs): not shown evidence of gastrointestinal lesions | activity against fresh human tumor cell lines in clonogenic assay [1]: active | cytotoxicity to multiple myeloma in the clonogenic assay ([1]; multiple myeloma): selective cytotoxicity
